Experimental data published in ChEMBL document CHEMBL5036351, “Discovery of novel, potent and orally efficacious inhibitor of neutral amino acid transporter B0AT1 (SLC6A19)” (Bioorg Med Chem Lett, 2021).

Assays:
[1] = Inhibition of B0AT1 (unknown origin) by radiolabled uptake assay; set-up: species or system Homo sapiens
[2] = Inhibition of B0AT1 (unknown origin) by FLIPR assay; set-up: species or system Homo sapiens
[3] = Tmax in C57BL/6 mouse at 3 mg/kg, po; type: ADME, organism-based; settings: in vivo
[4] = Cmax in C57BL/6 mouse at 3 mg/kg, po; type: ADME, organism-based; set-up: route oral, dose 3 mg/kg; settings: in vivo
[5] = AUC (0 to t) in C57BL/6 mouse at 3 mg/kg, po; type: ADME, organism-based; set-up: dose 3 mg/kg; settings: in vivo
[6] = Half life in C57BL/6 mouse at 3 mg/kg, po; type: ADME, organism-based; settings: in vivo
[7] = MRT in C57BL/6 mouse at 3 mg/kg, po; type: ADME, organism-based; settings: in vivo
[8] = Initial plasma concentration in C57BL/6 mouse at 1 mg/kg, iv; type: ADME, organism-based
[9] = AUC (0 to t) in C57BL/6 mouse at 1 mg/kg, iv; type: ADME, organism-based; set-up: dose 1 mg/kg; settings: in vivo
[10] = Volume of distribution at steady state in C57BL/6 mouse at 1 mg/kg, iv; type: ADME, organism-based; settings: in vivo, read-out: Vdss
[11] = Clearance in C57BL/6 mouse at 1 mg/kg, iv; type: ADME, organism-based; settings: in vivo
[12] = Half life in C57BL/6 mouse at 1 mg/kg, iv; type: ADME, organism-based; settings: in vivo
[13] = MRT in C57BL/6 mouse at 1 mg/kg, iv; type: ADME, organism-based; settings: in vivo
[14] = Bioavailability in C57BL/6 mouse at 1 mg/kg, iv; type: ADME, organism-based; settings: in vivo
Mus musculus [15] = assay: Anti-obesity activity in high fat diet induced C57BL/6J mouse model assessed as change in body weight at 25 mg/kg, po dosed once daily for 28 days; type: functional; settings: time 28 day
Mus musculus [16] = assay: Anti-obesity activity in C57BL/6J mouse model of diet-induced obesity assessed as reduction in area under curve at 25 mg/kg, po dosed once daily for 28 days by insulin tolerance test; type: functional; set-up: scale not given: the % may be the effect or the level left; settings: time 28 day
[17] = Metabolic stability in mouse liver microsomes; type: ADME, Microsome
[18] = Metabolic stability in dog liver microsomes; type: ADME, Canis lupus familiaris, Microsome
[19] = Metabolic stability in rat liver microsomes; type: ADME, Microsome
[20] = Metabolic stability in human liver microsomes; type: ADME, Microsome
Cytochrome P450 2C8 = target: T1, Cytochrome P450 2C8 (Homo sapiens, UniProt P10632); assay: Inhibition of CYP2C8 (unknown origin); type: ADME
T1 sequence (P10632 whole entry): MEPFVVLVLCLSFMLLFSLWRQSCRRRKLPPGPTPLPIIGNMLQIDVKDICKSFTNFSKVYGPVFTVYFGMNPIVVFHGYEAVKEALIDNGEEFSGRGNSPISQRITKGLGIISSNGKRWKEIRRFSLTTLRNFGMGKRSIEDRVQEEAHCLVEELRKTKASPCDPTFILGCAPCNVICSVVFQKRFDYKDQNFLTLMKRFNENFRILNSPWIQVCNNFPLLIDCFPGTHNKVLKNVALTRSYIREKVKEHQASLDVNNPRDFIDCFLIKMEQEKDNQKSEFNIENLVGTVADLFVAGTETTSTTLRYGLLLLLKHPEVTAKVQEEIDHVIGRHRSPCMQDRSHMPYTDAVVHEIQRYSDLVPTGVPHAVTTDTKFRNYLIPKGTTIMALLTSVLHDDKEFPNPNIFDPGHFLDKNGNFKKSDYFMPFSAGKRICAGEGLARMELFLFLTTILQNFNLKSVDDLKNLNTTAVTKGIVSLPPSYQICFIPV

Cytochrome P450 2C9 = Cytochrome P450 2C9 (Homo sapiens, UniProt P11712); assay: Inhibition of CYP2C9 (unknown origin); type: ADME
Cytochrome P450 2C19 = Cytochrome P450 2C19 (Homo sapiens, UniProt P33261); assay: Inhibition of CYP2C19 (unknown origin); type: ADME
Cytochrome P450 3A4 = Cytochrome P450 3A4 (Homo sapiens, UniProt P08684); assay: Inhibition of CYP3A4 (unknown origin); type: ADME
Sequence of Cytochrome P450 3A4 (P08684 whole entry): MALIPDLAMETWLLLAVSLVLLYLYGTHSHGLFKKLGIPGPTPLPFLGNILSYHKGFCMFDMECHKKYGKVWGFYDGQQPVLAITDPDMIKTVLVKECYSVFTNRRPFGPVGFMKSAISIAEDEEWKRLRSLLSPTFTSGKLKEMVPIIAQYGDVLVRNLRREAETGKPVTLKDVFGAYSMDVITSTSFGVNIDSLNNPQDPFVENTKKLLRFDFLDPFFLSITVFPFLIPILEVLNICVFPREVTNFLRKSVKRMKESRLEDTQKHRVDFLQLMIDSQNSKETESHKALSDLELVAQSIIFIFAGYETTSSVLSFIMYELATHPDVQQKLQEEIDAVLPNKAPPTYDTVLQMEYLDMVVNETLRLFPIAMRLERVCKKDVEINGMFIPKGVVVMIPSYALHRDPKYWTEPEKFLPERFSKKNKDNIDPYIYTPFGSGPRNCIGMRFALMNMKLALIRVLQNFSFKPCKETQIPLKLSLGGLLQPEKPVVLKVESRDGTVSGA

Sequence of Cytochrome P450 2C9 (P11712 whole entry): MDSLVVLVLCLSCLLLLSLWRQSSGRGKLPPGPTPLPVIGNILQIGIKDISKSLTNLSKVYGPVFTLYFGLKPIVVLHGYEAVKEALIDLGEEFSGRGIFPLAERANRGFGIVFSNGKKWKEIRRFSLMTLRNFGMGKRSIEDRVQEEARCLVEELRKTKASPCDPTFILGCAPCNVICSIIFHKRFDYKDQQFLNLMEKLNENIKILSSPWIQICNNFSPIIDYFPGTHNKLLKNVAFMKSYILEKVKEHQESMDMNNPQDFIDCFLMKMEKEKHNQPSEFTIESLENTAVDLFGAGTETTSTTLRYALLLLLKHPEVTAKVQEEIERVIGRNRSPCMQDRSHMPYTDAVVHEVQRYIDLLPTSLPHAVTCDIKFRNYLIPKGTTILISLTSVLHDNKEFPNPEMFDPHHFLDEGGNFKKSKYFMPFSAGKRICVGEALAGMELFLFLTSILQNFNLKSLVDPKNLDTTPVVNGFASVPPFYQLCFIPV
Sequence of Cytochrome P450 2C19 (P33261 whole entry): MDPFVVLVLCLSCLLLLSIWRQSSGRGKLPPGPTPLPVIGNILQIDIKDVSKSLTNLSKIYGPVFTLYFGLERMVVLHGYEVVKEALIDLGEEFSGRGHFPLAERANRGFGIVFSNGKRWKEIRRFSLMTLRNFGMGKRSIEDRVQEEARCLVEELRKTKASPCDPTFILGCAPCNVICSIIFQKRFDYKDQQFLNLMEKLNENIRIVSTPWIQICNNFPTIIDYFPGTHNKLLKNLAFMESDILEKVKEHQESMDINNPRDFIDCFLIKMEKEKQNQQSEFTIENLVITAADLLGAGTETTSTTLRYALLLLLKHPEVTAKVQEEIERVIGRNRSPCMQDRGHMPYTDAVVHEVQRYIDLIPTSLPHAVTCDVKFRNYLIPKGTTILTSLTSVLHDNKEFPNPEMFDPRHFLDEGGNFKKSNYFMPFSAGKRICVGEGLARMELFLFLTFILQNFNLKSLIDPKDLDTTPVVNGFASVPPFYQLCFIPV

CN1C2CCC1CC(OC(c1ccccc1)c1ccccc1)C2 (configuration not stated)
IC50 [1]: 71000 nM | IC50 [2]: 44000 nM

O=S(=O)(Nc1ccc(S(=O)(=O)C(F)(F)F)cc1Oc1ccc(Cl)cc1)c1ccccc1
IC50 [1]: > 1000 nM

O=S(=O)(Nc1ccc(S(=O)(=O)C(F)(F)F)cc1Nc1ccccc1)c1ccccc1
IC50 [1]: 690 nM

COc1ccc(Oc2cc(S(=O)(=O)C(F)(F)F)ccc2NS(=O)(=O)c2ccccc2)cc1OC
IC50 [1]: > 1000 nM

CS(=O)(=O)c1ccc(NS(=O)(=O)c2ccccc2)c(Oc2ccccc2)c1
IC50 [1]: > 10000 nM

COc1ccc(Oc2cc(S(=O)(=O)C(F)(F)F)ccc2NS(=O)(=O)c2ccccc2)cc1
IC50 [1]: 600 nM

COc1cccc(Oc2cc(S(=O)(=O)C(F)(F)F)ccc2NS(=O)(=O)c2ccccc2)c1
IC50 [1]: 460 nM

O=S(=O)(Nc1ccc(S(=O)(=O)C(F)(F)F)cc1Oc1ccccc1)c1ccccc1
IC50 [1]: 190 nM

N=C(NO)c1ccc(NS(=O)(=O)c2ccccc2)c(Oc2ccccc2)c1
IC50 [1]: > 10000 nM

N#Cc1ccc(Oc2cc(S(=O)(=O)C(F)(F)F)ccc2NS(=O)(=O)c2ccccc2)cc1
IC50 [1]: > 1000 nM

Cc1cccc(Oc2cc(S(=O)(=O)C(F)(F)F)ccc2NS(=O)(=O)c2ccccc2)c1
IC50 [1]: 1000 nM

NC(c1ccccc1)c1cc(S(=O)(=O)C(F)(F)F)ccc1NS(=O)(=O)c1ccccc1 (configuration not stated)
IC50 [1]: > 1000 nM

O=S(=O)(Nc1ccc(S(=O)(=O)C(F)(F)F)cc1Oc1ccc(Cl)c(Cl)c1)c1ccccc1
IC50 [1]: 1000 nM

Cc1ccc(Oc2cc(S(=O)(=O)C(F)(F)F)ccc2NS(=O)(=O)c2ccccc2)cc1
IC50 [1]: > 1000 nM

N=C(N)c1ccc(NS(=O)(=O)c2ccccc2)c(Oc2ccccc2)c1
IC50 [1]: > 10000 nM

Cc1cc(C)cc(Oc2cc(S(=O)(=O)C(F)(F)F)ccc2NS(=O)(=O)c2ccccc2)c1
IC50 [1]: 440 nM

Cc1cc(C(=O)Nc2ccc(Cl)cc2C(F)(F)F)no1
IC50 [1]: 3900 nM | IC50 [2]: 1900 nM

O=S(=O)(Nc1ccc(S(=O)(=O)C(F)(F)F)cc1Oc1cc(F)cc(F)c1)c1ccccc1
IC50 [1]: 35 nM | Tmax [3]: 2 h | Cmax [4]: 3770 ng/mL | AUC(0-t) [5]: 31300 ng·h/mL | half-life [6]: 5.39 h | MRT [7]: 6.73 h | C0 [8]: 6680 ng/mL | AUC(0-t) [9]: 16200 ng·h/mL | Vd [10]: 0.35 L/kg | clearance [11]: 1.01 mL/min/kg | half-life [12]: 4.05 h | MRT [13]: 5.74 h | bioavailability [14]: 64% | Activity (Mus musculus [15]): -8.9% | Activity (Mus musculus [16]): 22.9% | Stability [17]: Stable | Stability [18]: Stable | Stability [19]: Stable | Stability [20]: Stable | inhibition (INH) (Cytochrome P450 2C8): Active | inhibition (INH) (Cytochrome P450 2C9): Active | inhibition (INH) (Cytochrome P450 2C19): Active | inhibition (INH) (Cytochrome P450 3A4): Active

O=S(=O)(Nc1ccc(S(=O)(=O)C(F)(F)F)cc1Sc1ccccc1)c1ccccc1
IC50 [1]: 800 nM

O=S(=O)(Nc1ccc(S(=O)(=O)C(F)(F)F)cc1Oc1cccc(Cl)c1)c1ccccc1
IC50 [1]: > 1000 nM

O=S(=O)(Nc1ccc(S(=O)(=O)C(F)(F)F)cc1Oc1ccc(F)cc1)c1ccccc1
IC50 [1]: 200 nM

CN(C)c1cccc(Oc2cc(S(=O)(=O)C(F)(F)F)ccc2NS(=O)(=O)c2ccccc2)c1
IC50 [1]: > 1000 nM

O=S(=O)(Nc1ccc(S(=O)(=O)C(F)(F)F)cc1C(O)c1ccccc1)c1ccccc1 (configuration not stated)
IC50 [1]: 320 nM

O=S(=O)(Nc1ccc(S(=O)(=O)C(F)(F)F)cc1OCc1ccccc1)c1ccccc1
IC50 [1]: 1000 nM

c1ccc(CCCN2CCCCC2Cc2ccccc2)cc1 (configuration not stated)
IC50 [1]: 78000 nM | IC50 [2]: 90000 nM

COC(=O)c1ccc(NS(=O)(=O)c2ccccc2)c(Oc2ccccc2)c1
IC50 [1]: > 10000 nM

O=S(=O)(Nc1ccc(S(=O)(=O)C(F)(F)F)cc1S(=O)(=O)c1ccccc1)c1ccccc1
IC50 [1]: > 1000 nM

N#Cc1ccc(NS(=O)(=O)c2ccccc2)c(Oc2ccccc2)c1
IC50 [1]: > 10000 nM

O=S(=O)(Nc1ccc(F)cc1Oc1ccccc1)c1ccccc1
IC50 [1]: > 10000 nM

O=C(Nc1ccccc1)c1cc(S(=O)(=O)C(F)(F)F)ccc1NS(=O)(=O)c1ccccc1
IC50 [1]: > 1000 nM

O=S(=O)(Nc1ccc(S(=O)(=O)C(F)(F)F)cc1Oc1ccc(F)c(F)c1)c1ccccc1
IC50 [1]: 90 nM

COc1ccc(C(CCCN2CCOCC2)c2ccc(C)cc2)cc1 (configuration not stated)
IC50 [1]: 16000 nM | IC50 [2]: 20000 nM

O=C(O)c1ccc(NS(=O)(=O)c2ccccc2)c(Oc2ccccc2)c1
IC50 [1]: > 10000 nM

O=S(=O)(Nc1ccc(S(=O)(=O)C(F)(F)F)cc1Oc1cccc(F)c1)c1ccccc1
IC50 [1]: 150 nM

O=S(=O)(Nc1ccc(S(=O)(=O)C(F)(F)F)cc1-c1ccccc1)c1ccccc1
IC50 [1]: 370 nM

O=C(c1ccccc1)c1cc(S(=O)(=O)C(F)(F)F)ccc1NS(=O)(=O)c1ccccc1
IC50 [1]: 600 nM

O=S(=O)(Nc1ccc(S(=O)(=O)C(F)(F)F)cc1OC1CCCCC1)c1ccccc1
IC50 [1]: > 1000 nM

O=[N+]([O-])c1ccc(NS(=O)(=O)c2ccccc2)c(Oc2ccccc2)c1
IC50 [1]: 200 nM

O=C(NO)c1ccc(NS(=O)(=O)c2ccccc2)c(Oc2ccccc2)c1
IC50 [1]: > 10000 nM

NC(=O)c1ccc(NS(=O)(=O)c2ccccc2)c(Oc2ccccc2)c1
IC50 [1]: > 10000 nM

O=S(=O)(Nc1ccc(S(=O)(=O)C(F)(F)F)cc1Oc1cccnc1)c1ccccc1
IC50 [1]: > 1000 nM

O=S(=O)(Nc1ccc(S(=O)(=O)C(F)F)cc1Oc1ccccc1)c1ccccc1
IC50 [1]: > 10000 nM

COc1cc(F)cc(Oc2cc(S(=O)(=O)C(F)(F)F)ccc2NS(=O)(=O)c2ccccc2)c1
IC50 [1]: 100 nM

O=S(=O)(Nc1ccc(-c2nn[nH]n2)cc1Oc1ccccc1)c1ccccc1
IC50 [1]: > 10000 nM

O=S(=O)(Nc1ccc(C(F)(F)F)cc1Oc1ccccc1)c1ccccc1
IC50 [1]: > 10000 nM

O=S(=O)(Nc1ccc(S(=O)(=O)C(F)(F)F)cc1Oc1ccc(C(F)(F)F)cc1)c1ccccc1
IC50 [1]: 520 nM

CCNC(=O)/C=C/c1cccc(Br)c1 [CINROMIDE]
IC50 [1]: 370 nM | IC50 [2]: 280 nM

CS(=O)(=O)Nc1ccc([N+](=O)[O-])cc1Oc1ccccc1 [NIMESULIDE]
IC50 [1]: 23000 nM

CCc1ccc(CCOc2ccc(CC3SC(=O)NC3=O)cc2)nc1 (configuration not stated) [PIOGLITAZONE]
Activity (Mus musculus [15]): 6% | Activity (Mus musculus [16]): -36%
